For test [1], the system named is synapses between C-fibers and DH neurons. The test can be described thus: LTP of C-fiber evoked field potentials in spinal dorsal horn in vivo. Set-up: species or system rat. Particulars: for LTP produced by 4 high-frequency trains of nerve shock: naïve animals. On the procedure: Under anesthesia, a cannula was inserted into the trachea to allow artificial ventilation and another cannula containing heparin (0.03%) saline was inserted into the left carotid artery to monitor the blood pressure. The rat was placed in a stereotaxic frame, then was paralyzed by an intravenous injection of pancuronium bromide (4 mg/kg) and artificially ventilated with air at a tidal volume of 15 ml/kg. Adequate anesthesia was confirmed intermittently during neuromuscular blockade in terms of the following two criteria: (1) the pupils were constricted; (2) the blood pressure remained stable during noxious stimulation. Core body temperature was monitored through a thermister probe inserted into the rectum and maintained at 37.5±0.5° C. by means of a feedback-controlled heating pad under the ventral surface of the abdomen. In each experiment phosphate-buffered saline (PBS) was intermittently administered via a jugular vein cannula to maintain hydroelectrolyte balance. A laminectomy was performed to expose the lumbar spinal cord. The dura mater was then removed the exposed cord was immediately covered with warm agar (2% in saline). After the agar hardened, a small hole was made above the recording site for application of drug or vehicle. At the end of each experiment, the animals were killed by an overdose of intravenous pentobarbital (200 mg/kg).
Long-term potentiation (LTP) tests were performed on naïve rats. The protocol for the electrophysiological recordings of C-fiber evoked field potentials was similar to that described previously (Liu and Sandkuhler, 1998). The recordings were made at depths of 200-500 μm from the surface of the spinal cord between L4-L5 with glass capillary microelectrodes (DC resistances 3-5 MΩ filled with 2 M NaCl). The sciatic nerve was stimulated by a bipolar platinum hook electrode. […] Examples of the C-fiber-evoked field potentials given in each figure were recorded before (a) and after (b) tetanic stimulation (indicated by the arrow therein) or ephrinB1-Fc. […]

A further test has as its system naïve rats. The test can be described thus: Thermal sensitivity of naïve rats after intrathecal EphB receptor activators. Format: in vivo, rat. Particulars: prior injection of 20 μg.

Molecules are shown by their SMILES.

Turning to `C[C@]12N[C@H](Cc3ccccc31)c1ccccc12` [MK-801, dizocilpine], the entries for the “LTP produced by 4 high-frequency trains of nerve shock” value in test [1] (post-treatment) and in test [1] (topical pre-treatment) were “not interrupted” and “blocked”, respectively. For the same molecule, the “LTP induced by the combination of ephrinB1-Fc and 2 tetanic trains” value in test [1] (pre-treatment, n=5) was “blocked”. In the test on naïve rats, the “thermal hypersensitivity induced by injection of ephrinB1-Fc or ephrinB2-Fc” value is given as “prevented”.

Source of the values: patent publication US20080112954A1, “Method for treating chronic pain” (Parker College of Chiropractic, priority 2006, published 2008).
